Results as given in patent US20020049169A1, “Method for reducing toxicity of combined chemotherapies” (priority 2000, published 2002).
“Also recorded” adds a separate entry of the source.

Assays:
Type in all cases: biochemical
human cardiac cytosol [1] = test: Conversion of DOX aglycone into DOXol aglycone, plus or minus taxanes, in human cardiac cytosol; details: for stimulation of conversion of DOX aglycone into DOXol aglycone (in words): DOX aglycone in place of DOX, plus taxane; for cytoplasmic conversion of doxorubicinone to doxorubicinolone: n=3
From the text: (§1) The enzymes of DOX metabolism are strongly species-related. To avoid the potential pitfalls associated with studies in animal models, an in vitro human heart assay was utilized. The assay involves isolation of both cytosolic fractions generating DOXol, and microsomal fractions converting DOX to free radicals.
(§2) Human myocardium is obtained from patients undergoing aorto-coronary bypass grafting. All samples were routinely disposed of by the surgeons from the lateral aspect of excluded right atrium during cannulation procedures for cardio-pulmonary by-pass. After storage at −80° C., pools of 15-20 samples are processed for cytosol preparation by sequential homogenization, ultracentrifugation and overnight 65% ammonium sulfate precipitation of 105,000 g supernatants. Next, cytosol is dialyzed against 100 mM Tris HCl-40 mM KCl, pH 8.9, diluted to 3 mg protein/ml with the same buffer, and incubated for 15 minutes at room temperature with 100 mM dithiothreitol to promote non-denaturing disassembly of the [4Fe-4S] cluster of cytoplasmic aconitase. This treatment is necessary as reactions of DOXol with [4Fe-4S] clusters would convert this metabolite back to DOX. Sizable amounts of DOXol would therefore go undetected if they reacted with [4Fe-4S] clusters prior to their assay. Unreacted dithiothreitol was eventually removed by sequential gel filtration on (1.5×10 cm) Sepharose 6B columns, protein reprecipitation with 65% ammonium sulfate, and extensive dialysis against 0.3 M NaCl, pH 7.0. Doxorubicin metabolism was reconstituted in 0.5 ml incubations containing cytosol (0.15 mg protein), NADPH (100 μM) and DOX (25 μM), in 0.3 M NaCl (pH 7.0) 37° C. Where indicated ethanol-dissolved taxanes (1-50 μM) were included. Aliquots of taxane-free ethanol (5 μl) were included as appropriate to adjust the final volume to 10 μl in all incubations. After 4 h DOX and DOXol were extracted with 2 ml of CHCl3/CH3OH (1:1) and separated by previously validated two-dimensional TLC on (20×20 cm) […] F524 Silica Gel Plates, using CHCl3/CH3OH/CH3COOH/H2O (80:20:14:6) as mobile phase in either dimension. Doxorubicinol was identified by cochromatography with (S)-DOXol from Streptomyces peucetius or (S)(R)-DOXol purified after NaBH4 reduction of DOX. Where indicated incubations were prepared by replacing DOX with DOX aglycone and by measuring formation of DOXol aglycone. The latter was separated from DOX aglycone by using CHCl3/CH3OH/CH3COOH (100:2:5) and CH3COOC2H5—CH3CH2OH—CH3COOH—H2O (80:10:5:5) in the first and second dimension, respectively. DOX aglycone was purified after thermoacid hydrolysis of DOX.

human cardiac cytosol [2] = test: Reconstitution of DOX metabolism and DOXol formation, plus or minus taxanes, in human cardiac cytosol; details: for stimulation of DOXol formation (in words): [4Fe-4S]-depleted human cardiac cytosol, DOX 25 μM, taxane 1-50 μM, 4 h; for cytoplasmic conversion of DOX to doxorubicinol: human cardiac cytosol, n=3
From the text: as §1
Reconstitution of DOX Metabolism and DOXol Formation, Plus or Minus Taxanes, in Human Cardiac Cytosol.
as §2

[3] = tested on: NADPH cytochrome P-450 reductase; test: NADPH oxidation by deoxycholate-solubilized microsomes of human heart, plus or minus taxanes; details: 10 μM DOX, 1-10 μM taxane
Description: (§3) Reconstitution of DOX Metabolism and Free Radical Formation, Plus or Minus Taxanes, in Human Cardiac Microsomes.
(§4) 105,000 g pellets from human myocardium homogenates are solubilized with deoxycolate and reconstituted at the final concentration of 0.025 mg prot/ml with 10 μM DOX, 1-10 μM taxane, 0.1 mM NADPH, in 0.3 M NaCl, pH 7.0, 37° C.
(§5) Electron flow from NADPH cytochrome P-450 reductase to the quinone moiety of DOX is detected by monitoring NADPH oxidation. Redox coupling of the semiquinone with oxygen is detected by monitoring formation of the superoxide anion radical with the superoxide dismutase-inhibitable reduction of cytochrome c (25 μM). These assays are performed in a Hewlett Packard 8453A UV/VIS/NIR spectrometer equipped with computer-assisted corrections for scatter and turbidity.

human cardiac microsomes = test: Superoxide anion formation (superoxide dismutase-inhibitable reduction of cytochrome c) by deoxycholate-solubilized human cardiac microsomes; details: for effect of taxane on DOX-dependent superoxide anion formation (in words): DOX plus 10 μM taxane; for generation of superoxide anion radicals in microsomal fractions: human cardiac microsomes, n=4-10
Description: as §3, §4, §5

[4] = deoxycholate-solubilized microsomes
[5] = taxane 1 μM with doxorubicinone
[6] = DOX alone, no taxane (baseline)

Row | Structure (SMILES) | stimulation of conversion of DOX aglycone into DOXol aglycone (in words) (human cardiac cytosol [1]) | stimulation of DOXol formation (in words) (human cardiac cytosol [2]) | effect on NADPH oxidation in the presence of DOX (in words) [3] | effect of taxane on DOX-dependent superoxide anion formation (in words) (human cardiac microsomes; [4]) | cytoplasmic conversion of doxorubicinone to doxorubicinolone (human cardiac cytosol [1]; [5]) | cytoplasmic conversion of DOX to doxorubicinol (human cardiac cytosol [2]; taxane 1 μM with DOX) | cytoplasmic conversion of DOX to doxorubicinol (human cardiac cytosol [2]; [6]) | generation of superoxide anion radicals in microsomal fractions (human cardiac microsomes; [6]) | effect of DOX on superoxide anion formation (in words) (human cardiac microsomes; deoxycholate-solubilized microsomes, DOX without taxane) | generation of superoxide anion radicals in microsomal fractions (human cardiac microsomes; taxane 10 μM with DOX) | cytoplasmic conversion of doxorubicinone to doxorubicinolone (human cardiac cytosol [1]; doxorubicinone alone, no taxane (baseline))
1 | CSCO[C@H]1C[C@H]2OC[C@@]2(OC(C)=O)[C@H]2[C@H](OC(=O)c3ccccc3)[C@]3(O)C[C@H](OC(=O)[C@H](O)[C@@H](NC(=O)c4ccccc4)c4ccccc4)C(C)=C([C@@H](OC(C)=O)C(=O)[C@]12C)C3(C)C [7-methylthiomethyl taxol] | did not increase; also recorded: has not been found to stimulate the formation of DOXol aglycone | did not increase; also recorded: did not stimulate DOXol formation at any of the concentrations tested | appeared to inhibit NADPH oxidation | did not increase; also recorded: did not afford any significant stimulation |  |  |  |  |  |  | 
2 | CC(=O)O[C@@]12CO[C@@H]1C[C@H](O)[C@@]1(C)C(=O)[C@H](O)C3=C(C)[C@@H](OC(=O)[C@H](O)[C@@H](NC(=O)OC(C)(C)C)c4ccccc4)C[C@@](O)([C@@H](OC(=O)c4ccccc4)[C@H]21)C3(C)C [DCT, docetaxel] | able to stimulate the conversion of DOX aglycone into DOXol aglycone | stimulate DOXol formation |  | significant increase in superoxide formation | 1.3±0.2 nmol/mg prot./4 h | 1.2±0.2 nmol/mg prot./4 h |  |  |  |  | 
3 | COc1cccc2c1C(=O)c1c(O)c3c(c(O)c1C2=O)C[C@@](O)(C(=O)CO)C[C@@H]3O[C@H]1C[C@H](N)[C@H](O)[C@H](C)O1 [DOX, doxorubicin] |  |  |  |  |  |  | 0.46±0.04 nmol/mg prot./4 h | 1.6±0.1 nmol/mg prot./min | able to enhance superoxide anion formation |  | 
4 | CC(=O)O[C@H]1C(=O)[C@@]2(C)[C@H]([C@H](OC(=O)c3ccccc3)[C@]3(O)C[C@H](OC(=O)[C@H](O)[C@@H](NC(=O)c4ccccc4)c4ccccc4)C(C)=C1C3(C)C)[C@]1(OC(C)=O)CO[C@@H]1C[C@@H]2O [PTX, paclitaxel] | able to stimulate the conversion of DOX aglycone into DOXol aglycone | stimulate DOXol formation | able to stimulate NADPH oxidation | significant increase in superoxide formation | 1.4±0.2 nmol/mg prot./4 h | 1.1±0.2 nmol/mg prot./4 h |  |  |  | 2.2±0.2 nmol/mg prot./min | 
5 | COc1cccc2c1C(=O)c1c(O)c3c(c(O)c1C2=O)C[C@@](O)(C(=O)CO)C[C@@H]3O [doxorubicinone] |  |  |  |  |  |  |  |  |  |  | 0.8±0.1 nmol/mg prot./4 h
